Measurements as given in patent US20060247156A1, “Use of neuropeptides for ligament, cartilage, and bone healing” (priority 2004, published 2006).

Legend:
MCL = MCL organ culture with guanethidine, mechanical testing; settings: organ culture 10 days with guanethidine in media
Description: Bilateral MCLs (n=6) including intact femoral and tibial segments were aseptically harvested from untreated rats.
During and after harvest, tissues were rinsed in sterile phosphate buffered saline (PBS) containing penicillin (100 U/mL), streptomycin (100 μg/mL), and fungizone (0.25 μg/mL). Bone blocks were trimmed in order to minimize the amount of bone marrow, which may alter the culture environment. Tissues were then cultured in Dulbecco's Modified Eagle's Medium (DMEM) supplemented with 10% fetal bovine serum, nonessential amino acids (0.1 mM), L-gutamine (4 mM), penicillin (100 U/mL), streptomycin (100 μg/mL), and fungizone (0.25 μg/mL). […] The cultures were maintained in an incubator at 37° C. and 5% CO2. Media were changed every 48 hours at which time tissues were rinsed with sterile PBS to reduce drug carryover into the fresh media containing the treatment drug or equivalent volume of carrier. Organ culture was maintained for 10 days after which time the MCLs were tested mechanically in the same manner as the in vivo treatment group (described below).

intact MCL = settings: guanethidine 40 mg/kg/day, 10 days
Description: Ligament thickness and width was measured optically, and MCL area was estimated with elliptical geometry. […] For strain measurements, optical markers were placed onto the ligament tissue near the insertion sites. A small preload of 0.1N was applied to the ligaments in order to obtain a uniform starting point. The ligaments were then preconditioned to 1% strain for 10 cycles.
The mechanical properties that were examined in this study were maximum force, ultimate stress, strain at failure, elastic modulus, and area.

[1] = tested on: sympathetic nervous system; settings: rat, in vivo
Description: For all groups, anesthesia (isofluorane 0.5-3%) was initiated in an induction chamber and maintained with a facemask. […] Both groups were survived for 10 days following implantation of the pump at which time the animals were euthanized with intraperitoneal injection of pentobarbitone. Throughout the study only one ligament per animal was used for a particular experimental test protocol (described below).
Statistical analysis was performed using an unpaired t-test (alpha=0.05) to compare differences between the control and treatment groups.

## N=C(N)NCCN1CCCCCCC1 [guanethidine]
MCL
  ultimate stress: 70.29±19.15 MPa
Intact MCL
  mean ultimate tensile force: not significantly decreased
  strain at failure: 8.1±0.4%
Intact MCL; tissue hydration
  wet weight: 6.8 ± 0.7 g
[1]
  abnormalities in movement, body weight, or behavior: No abnormalities
